From patent publication US7531557B2, “Diaryl ethers as opioid receptor antagonists” (Eli Lilly and Company, priority 2002, dated 2009)

Columns and labels:
[1] = system: dietary induced obese rats; conditions: cited from earlier work
[2] = former clinical trial candidate, development discontinued; cited from earlier work
[3] = system: mu, delta and kappa receptors in rat striatum/nucleus accumbens; test: Ex-vivo receptor binding of 3H-diprenorphine in rat brain after oral dosing; conditions: 7 mg/kg p.o., 6 hours after administration, striatum/nucleus accumbens homogenate, versus vehicle
[4] = system: Diet Induced Obese Rat; test: Indirect calorimetry assay (food consumption, energy balance); type: in vivo; conditions: for Energy Balance Diet Induced Obese Rat: test dose 3 mg/kg, energy balance = caloric intake minus utilization
Experimental: Indirect Calorimetry Assay
Twenty-four-hour energy expenditure (EE) and respiratory quotient (RQ) were measured by indirect calorimetry using an open circuit calorimetry system (Oxymax, Columbus Instruments Int. Corp., USA). RQ is the ratio of the volume of CO2 produced (VCO2) to the volume of O2 consumed (VO2). EE was calculated as the product of calorific value of oxygen (CV) and VO2 per kilogram of body weight, where CV=3.815+1.232 (RQ). Total calories expended were calculated to determine daily fuel utilization. To calculate the proportion of protein, fat and carbohydrate that is used during that 24-hour period, we used Flatt's proposal (see, Flatt J P 1991 Assessment of daily and cumulative carbohydrate and fat balances in mice. J Nutr Biochem 2:193-202.) and formulae as well as other derived constants (see Elia M, Livesey G 1992 Energy expenditure and fuel selection in biological systems: the theory and practice of calculations based on indirect calorimetry and tracer methods. World Rev Nutr Diet 70:68-131.). Food consumption over the 24-hour period was also measured. […] Results obtained for a sample of compounds of the invention with the indirect calorimetry assay are shown below in Table 4.

[5] = system: Rat; test: Acute feeding assay (Rat Obesity assay); type: in vivo
Source text: Acute Feeding Assay (Rat Obesity Assay)
The efficacy of compounds of the present invention has been further verified by the results of a Rat Obesity assay shown in Table 3.

For `C[C@H]1CN(CC[C@H](O)C2CCCCC2)CC[C@@]1(C)c1cccc(O)c1` [LY255582, reference compound], the “energy balance and total body mass” value ([1]; chronic treatment, dietary induced obese rats fed a high fat diet) is listed as “sustained negative energy balance leading to a decrease in total body mass”, the food intake ([1]; oral administration, acute and chronic treatment in rats) is listed as “robust reductions in food intake” and the human oral bioavailability [2] is listed as “lack of satisfactory human oral bioavailability”. The “Ex Vivo Binding [3H]-Diprenorphine % Inhibition of at 6 hours 7 mg/kg of test compound” value [3] was greater than 40%, the minimal effective dose ([4]; Rattus norvegicus, po, lowest dose with food consumption over 24 hours significantly different from vehicle, read-out: Inhibition of Feeding Diet Induced Obese Rat Minimum Effective Dose (MED)) was 1 mg/kg and the “Energy Balance Diet Induced Obese Rat” value ([4]; p.o.) was -36 kcal/kg/day.
In the case of “4-(4-Pentylaminomethyl-phenoxy)-benzamide [Example 290]”, the “Doses in ug/kg to achieve effective inhibition” value [5] is reported as 3 µg/kg, the “Inhibition of Feeding Diet Induced Obese Rat Minimum Effective Dose (MED)” value ([4]; p.o., lowest dose with food consumption over 24 hours significantly different from vehicle) is reported as 3 mg/kg and the “Energy Balance Diet Induced Obese Rat” value ([4]; p.o.) is reported as -65 kcal/kg/day.
`NC(=O)c1ccc(Oc2ccc(CNCC3CC3)cc2F)nc1` [Example 673, 6-[4-(Cyclopropylmethylaminomethyl)-2-fluorophenoxy]nicotinonamide] showed a melting point of 128 to 129 °C.
Work on `NC(=O)c1ccc(Oc2ccc(CNCC3CCCCC3)cc2F)nc1` yielded a melting point of 152 to 153 °C.
